Results from patent publication US20210254056A1, “IDENTIFICATION AND TARGETED MODULATION OF GENE SIGNALING NETWORKS” (CAMP4 THERAPEUTICS CORPORATION, priority 2017, published 2021).

Tests used:
[1] = tested on: primary human hepatocytes; assay: qRT-PCR validation of gene expression in hepatocytes from a second donor; type: cell-based
Protocol: qRT-PCR was performed on samples of primary human hepatocytes from a second donor. […] The 58 liver disease associated genes analyzed were ACADVL, ACAT2, ACSL1, ACSL5, AGPAT2, AGTR1, AHSG, ALAS1, AMACR, ANGPTL2, ARG1, CA12, CA2, CIDEC, COL1A1, CPS1, CPT1A, CPT2, CYP21A2, CYP2C19, CYP3A4, CYP7A1, ECH1, ENO3, ETFDH, FABP1, FABP6, G6PC, GHR, GLA, GYS2, HGD, HMGCR, HMGCS2, HMOX1, HOGA1, HPGD, IFT27, LDHA, LPIN2, MOGAT2, NCF2, PCSK9, POR, RMRP, SLC25A20, SLC2A2, SLC37A4, SLC51B, SLC6A20, SLC6A6, SOAT2, SULT2A1, TAT, TDO2, TMEM135, TNFSF11, and VLDLR as shown in Example 2.

[2] = tested on: primary human hepatocytes; assay: RNA-seq of primary human hepatocytes treated with 39 small molecules (pilot and validation); conditions: for RNA-seq fold Δ (Log2): primary human hepatocytes; for Expected fold Δ: fold expected from RNA-seq Log2

CCOC(=O)N1c2ccc(C(F)(F)F)cc2[C@@H](N(Cc2cc(C(F)(F)F)cc(C(F)(F)F)c2)C(=O)OC)C[C@H]1CC [Torcetrapib]
Fold Δ ([1]; ACAT2 gene): 2.87 fold
Fold Δ ([1]; CYP7A1 gene): 0.85 fold
Fold Δ ([1]; HMGCR gene): 4.02 fold
Fold Δ ([1]; PCSK9 gene): 5.76 fold
Fold Δ ([1]; TNFS11 gene): 1.01 fold
RNA-seq fold Δ (Log2) ([2]; ACAT2 gene): 1.22 Log2
Expected fold Δ ([2]; ACAT2 gene): 2.33 fold
RNA-seq fold Δ (Log2) ([2]; CYP7A1 gene): −1.42 Log2
Expected fold Δ ([2]; CYP7A1 gene): 0.37 fold
RNA-seq fold Δ (Log2) ([2]; HMGCR gene): 1.26 Log2
Expected fold Δ ([2]; HMGCR gene): 2.39 fold
RNA-seq fold Δ (Log2) ([2]; PCSK9 gene): 1.07 Log2
Expected fold Δ ([2]; PCSK9 gene): 2.10 fold
RNA-seq fold Δ (Log2) ([2]; TNFS11 gene): 1.09 Log2
Expected fold Δ ([2]; TNFS11 gene): 2.13 fold
